One series deals with T1, PPARα (Homo sapiens, UniProt Q07869).
T1 sequence (Q07869 1-468): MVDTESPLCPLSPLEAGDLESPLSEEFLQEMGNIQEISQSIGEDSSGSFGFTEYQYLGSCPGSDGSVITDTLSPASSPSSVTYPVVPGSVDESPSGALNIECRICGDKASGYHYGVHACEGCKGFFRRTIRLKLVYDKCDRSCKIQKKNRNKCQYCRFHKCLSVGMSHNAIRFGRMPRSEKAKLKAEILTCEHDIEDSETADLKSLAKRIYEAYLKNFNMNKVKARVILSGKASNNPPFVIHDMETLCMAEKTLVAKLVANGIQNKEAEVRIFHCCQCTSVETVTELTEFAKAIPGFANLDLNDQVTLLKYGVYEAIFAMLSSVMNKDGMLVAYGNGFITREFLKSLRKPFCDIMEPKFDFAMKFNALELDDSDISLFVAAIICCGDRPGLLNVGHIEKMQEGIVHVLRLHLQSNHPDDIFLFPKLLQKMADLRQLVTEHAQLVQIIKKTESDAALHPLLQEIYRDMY
The conditions noted are these: cited from earlier work.

The subject of another series is acyl-CoA oxidase. The conditions noted are these: substance alone; cited from earlier work.
For a further series, the target named is T2, PPARγ (Homo sapiens, UniProt P37231).
T2 sequence (P37231 1-505): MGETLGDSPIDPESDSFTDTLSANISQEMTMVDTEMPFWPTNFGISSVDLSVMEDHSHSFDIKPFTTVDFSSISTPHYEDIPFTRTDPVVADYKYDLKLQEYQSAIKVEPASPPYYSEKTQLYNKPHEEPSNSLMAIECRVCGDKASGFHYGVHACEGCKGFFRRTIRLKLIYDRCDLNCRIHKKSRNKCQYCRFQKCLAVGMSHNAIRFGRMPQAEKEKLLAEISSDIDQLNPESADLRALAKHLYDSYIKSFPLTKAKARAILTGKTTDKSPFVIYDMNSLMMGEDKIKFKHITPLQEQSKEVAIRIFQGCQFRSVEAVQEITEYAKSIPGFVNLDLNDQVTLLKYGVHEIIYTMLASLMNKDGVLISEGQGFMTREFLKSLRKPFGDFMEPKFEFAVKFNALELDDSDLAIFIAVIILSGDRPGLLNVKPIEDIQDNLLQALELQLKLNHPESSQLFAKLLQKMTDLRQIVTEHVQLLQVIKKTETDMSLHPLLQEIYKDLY
The note with it: cited from earlier work.

For series [1] the following is noted: rats, 12 weeks; cited from earlier work.
The conditions of series [2]: moderate doses, within days of treatment; cited from earlier work.
The next series concerns cancer cell lines. The conditions noted are these: many cancer cell lines; cited from earlier work.
For series [3], the system named is peripheral mononuclear cells. The conditions noted are these: cited from earlier work.
The test system of the next series is interleukin-2. The note with it: cited from earlier work.
The conditions of series [4]: TTA alone; cited from earlier work.
A further series concerns the target T3, PPARβ (Homo sapiens, UniProt Q03181).
T3 sequence (Q03181 1-441): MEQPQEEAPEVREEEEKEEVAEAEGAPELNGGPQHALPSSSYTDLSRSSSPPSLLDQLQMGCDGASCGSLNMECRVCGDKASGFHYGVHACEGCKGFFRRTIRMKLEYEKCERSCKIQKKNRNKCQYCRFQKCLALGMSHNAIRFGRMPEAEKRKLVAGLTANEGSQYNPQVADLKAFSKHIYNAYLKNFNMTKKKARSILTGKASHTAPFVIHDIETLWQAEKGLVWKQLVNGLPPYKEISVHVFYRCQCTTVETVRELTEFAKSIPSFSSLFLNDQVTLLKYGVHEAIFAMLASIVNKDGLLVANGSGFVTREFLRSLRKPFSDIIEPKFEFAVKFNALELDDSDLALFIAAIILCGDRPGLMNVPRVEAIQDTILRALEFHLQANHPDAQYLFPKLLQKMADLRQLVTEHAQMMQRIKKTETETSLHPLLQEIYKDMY
The conditions noted are these: cited from earlier work.

A short description of series [5]: degradation time in vivo of ω-oxidation-blocked fatty acid analogue. The note with it: triple bond at the methyl end blocks ω-oxidation. An excerpt:
ω-oxidation is believed to be the main pathway for degradation of the fatty acid analogues as described with a block in the X position. Fatty acid analogues in which R′ was changed by introducing a triple bond at the methyl end of the fatty acid analogue block ω-oxidation. […] Thus, this modification finds use in embodiments of the technology to potentiate the effects of the β-oxidizable fa acid analogues by further slowing down their breakdown.

The subject of series [6] is mitochondrial β-oxidation in the liver. The note with it: sulfur in 3, 5 or 7 position relative to carboxyl end; cited from earlier work.

Here are results for 3 compounds from patent US10259833B2, “Natural lipids containing non-oxidizable fatty acids” (Bergen Teknologioverføring AS, priority 2013, dated 2019).

In the case of `CCCCCCCCCCCCCCSCC(=O)O` [TTA, tetradecylthioacetic acid], the PPARα ligand result at PPARα is “potent ligands”. Further, the “effect on acyl-CoA oxidase activity” value in the series with acyl-CoA oxidase is listed as “large increase”. For the same compound, on PPARγ, the PPARγ activation entry was “activate”. For the same compound, in series [1], the “hepatic and plasma content of monounsaturated fatty acids (mainly oleic acid)” value was “nearly doubled”; the “polyunsaturated fatty acids (mainly linoleic acid and DHA)” value is recorded as “decreased”. In addition, in series [2], the “plasma cholesterol and triacylglycerol levels” value is given as “decreases”. Also, in the series with cancer cell lines, the “proliferation of cancer cell lines” value is reported as “reduce proliferation”. In series [3], the “PHA stimulated proliferation of peripheral mononuclear cells” value is “suppressing”. Besides, the “release of interleukin-2” value with interleukin-2 is listed as “depressing the release”. The “effect on plasma triacylglycerol level” value in series [4] is given as “reduces plasma triacylglycerol level”. The PPARβ activation result at PPARβ is reported as “activate”.
Take `CC#CCCCCCCCCCCCSCC` [3-thia-15-heptadecyne]: the “degradation time in vivo” value in series [5] was “substantially increased degradation time”.
For the compound `CCCCCCCCCCCCCCCC(=O)O` [palmitic acid], the “mitochondrial β-oxidation activity” value in series [6] is on record as 0.47.
